How the values were obtained:
Format in all cases: in vivo
[1] = test system: oriental armyworm, Mythimna separata Walker (东方粘虫); assay: bioactivity evaluation against oriental armyworm, leaf dip; conditions: in Zea mays, foliar, 72 h, read-out: mortality grade
[2] = test system: diamondback moth, Plutella xylostella (L.) (小菜蛾); assay: bioactivity evaluation against diamondback moth, leaf dip; conditions: in Brassica oleracea, foliar, 72 h, read-out: mortality grade
[3] = test system: beet armyworm, Laphygma exigua Hubner (甜菜夜蛾); assay: bioactivity evaluation against beet armyworm, leaf dip; conditions: Spodoptera exigua, in Brassica oleracea, foliar, 72 h, read-out: mortality grade

Measured: mortality at 500 ppm

Cc1cc(Cl)cc(C(=O)NC2CC2)c1NC(=O)c1cc(OCC(F)(F)F)nn1-c1ncccc1Cl [compound 18]
90 to 100%: all assays above

— CN101659655A, “一类吡唑酰胺衍生物及其应用” (Nankai University, priority 2009, dated 2010)
